According to US20130274233A1, “MODULATORS OF HEDGEHOG SIGNALING PATHWAY” (priority 2012, published 2013):
Counter-ions that a name gives are not always drawn. Each block holds one molecule with its values, some of them ahead of it.

Columns and labels:
Smo::EGFP [1] = biological target: T1, Smo::EGFP (Homo sapiens, UniProt Q99835); test: High content assay of Shh-induced Smo::EGFP accumulation in the primary cilium (Smo::EGFP/Ivs::tagRFPT NIH/3T3 cells); format: cell-based; conditions: for accumulation of Smo on the PC: in either the presence or absence of Shh; for inhibition of Shh-induced Smo::EGFP accumulation in the PC: in the presence of Shh; for Smo antagonist activity in SAR assays: Smo::EGFP/Ivs::tagRFPT cells primed with compounds for 3 hours before adding Shh
T1 construct: expressed in transfected cells
From the text: (§1) NIH/3T3 cells were maintained in DMEM containing 10% (v/v) calf serum, penicillin, streptomycin, and L-glutamine. HEK293, L, cos 7, and suFU−/− mouse embryonic fibroblast cells were maintained in DMEM containing 10% (v/v) fetal bovine serum, penicillin, streptomycin, and L-glutamine. Smo::EGFP, SmoM2::GFP, and Ivs::tagRFPT were cloned into pBabe to generate retroviral particles for infection. Smo::EGFP/Ivs::tagRFPT and SmoM2::GFP/Ivs::tagRFPT stable cell lines were generated through viral infection of NIH/3T3^12. A ShhLightII Gli reporter cell line was obtained from the American Type Culture Collection (ATCC) and used in luciferase reporter assays to measure Hh pathway activity. The cell line contains a stably integrated Gli-responsive Firefly luciferase reporter and a constitutive Renilla luciferase expression construct^33. Subclones expressing Smo or SmoM2 in ShhLightII cells were used for chemical epistasis analyses.
(§2) Cells were cultured and treated in 384-well imaging plate precoated with poly-D-Lysine (Greiner Bio-one), fixed with 4% paraformaldehyde (Electron Microscopy Sciences), and stained with Hoechst (Invitrogen). Images were collected using Opera High Content Screening System (Perkin Elmer). Activityl)ase (IDBS Inc, Emeryvill, Calif.) and Pipeline Pilot (Accelrys, Inc. San Diego, Calif.) were used for high content screening data management and analysis. Acapella 2.0 software (Evotec Technologies/PerkinElmer) was used to perform multi-parametrical high content image quantification. All the images for comparison were scanned with identical microscopic settings and analyzed with the same input parameters.
(§3) Acapella 2.0 software (Evotec Technologies/PerkinElmer) was used to perform multi-parametric high content image quantification. Our image analysis script used Ivs::tagREPT to first determine the location of the PC and then Smo::EGFP to quantify the level of Smo present in the cilium.
(§4) The inventors used the spot-finding algorithm in the RFP channel to find Ivs-rich spots. Each non-overlapping spot was based on a maximum 8 pixel-radius (when using a 40× objective) around a central intensity peak of 5 pixels. A distance of at least 10 pixels was required between adjacent spot centers. Spot peaks had to exceed thresholds of relative intensity compared to the remaining body of the spot as well as to the entire image. The average, maximum and total RFP intensity of each spot were measured. The spots with sufficiently high absolute maxima to pass the selected threshold were classified as positive spots. To form candidate cilia, the inventors selected the brightest 15% of the pixels in each positive spot and merged those pixels into objects so that the brightest parts of adjacent spots could form single, larger cilia-shaped objects. To qualify the candidate cilia as true Ivs-positive cilia, the width of the objects created from merging the brightest pixels in each spot had to be at least 2 pixels and the length to half-width ratio had to exceed 3. (i.e. a 3-pixel long by 2-pixel wide cilium was the minimum accepted cilium size and the length had to be at least 1.5 fold of the width). The mean GFP intensity within these Ivs-positive cilia was used to estimate the ciliary level of Smo protein. The inventors subtracted the background of the mean GFP intensity in the 3-pixel wide area around each candidate cilium to avoid some false positives. Those Ivs-positive cilia that exceed the final mean GFP intensity threshold set for each experiment were deemed Smo-positive cilia.
Hoechst staining was used to determine the total number of nuclei per well.
Measurements of the geometry of the cilia as well as the total fluorescent intensities of each cilium in the Smo- and Ivs-channels were used to determine if any of the compounds were having unusual effects on cilia size, intensity or frequency of observation or combinations of all three characteristics.

Hh pathway activity [2] = test: Gli-luciferase reporter assay, Shh-induced Hh pathway activity (ShhLightII cells); format: cell-based; conditions: for inhibition of Shh-induced Hh pathway activity, Gli-luciferase reporter: Shh stimulation
From the text: as §1
(§5) Hh activity assays were performed using ShhLightll cells, Smo/Lightll cells, SmoM2/Lightll cells, and suFU−/− mouse embryonic fibroblasts. In the suFU−/− cells, Hh activity was measured after co-transfection with Gli driven firefly luciferase and TK-renilla luciferase reporters^41. Wnt activity was measured in 293 cells co-transfected with Top-flash and TK-renilla luciferase reporters^42. Cells were cultured and treated in 96 well assay plates (Corning) and incubated with Duo-Glo luciferase substrates (Promega) to measure firefly and renilla luciferase activity sequentially using a Top Count NX Microplate Scintillation and Luminescence Counter (Perkin Elmer). The renilla luciferase signal was used to normalize the firefly reporter activity.
(§6) ShhLightII cells and SmoM2/LightII cells were cultured and treated in 96 well assay plates (Corning) and incubated with Duo-Glo luciferase substrates (Promega) to sequentially measure firefly and renilla luciferase activity. Smo, or GFP, expression plasmids were co-transfected into 3T3 cells together with a Gli-responsive firefly reporter and a TK-renilla luciferase reporter contruct to monitor effects of Smo overexpression. Co-transfection of the two reporter constructs was conducted in assays measuring Hh pathway activity in suFU−/− cells. Wnt activity was measured following co-transfection of a Top-flash and renilla luciferase reporter. In both Hh and Wnt activity assays, renilla luciferase reporter activity, or mass of protein, was used to normalize expression values. Luciferase signal was read by TopCount NX Microplate Scintillation and Luminescence Counter (Perkin Elmer). Quantitative PCR probes for Ptch1, Gli1, and β-actin were purchased from Applied Biosystems. Reactions and measurements were performed using on an Applied Biosystems 7900HT at Harvard FAS Center of System Biology. β-actin was used to normalize Ptch1 and Gil1 values.

Wnt signaling activity = test: Wnt Top-flash reporter assay; format: cell-based; conditions: with or without Wnt3a
Protocol: as §5, §6

SmoM2::GFP = biological target: T2, SmoM2::GFP (Homo sapiens, UniProt Q99835, W535L); test: Ciliary localization of SmoM2::GFP (3T3/SmoM2::GFP Overexpression/Ivs::tagRFPT); format: cell-based; conditions: SmoM2::EGFP overexpressing cells
T2 construct: expressed in transfected cells
From the text: as §1, §2, §3

primary cilium (PC) = test: Primary cilium markers in the high content assay (Ivs::tagRFPT, Arl13b, acetylated tubulin); format: cell-based; conditions: Ivs::tagRFPT and other PC markers
From the text: as §3
as §4, with “cilia. […]” for “cilia.”
Cells were cultured and treated in 384-well imaging plate precoated with poly-D-Lysine (Greiner Bio-one), fixed with 4% paraformaldehyde (Electron Microscopy Sciences), and stained with Hoechst (Invitrogen). […] Acapella 2.0 software (Evotec Technologies/PerkinElmer) was used to perform multi-parametric image quantification. All the comparative images were scanned with identical microscopic setting and analyzed with the same input parameters.

SmoM2 = test: Gli-luciferase reporter induced by SmoM2::GFP overexpression (SmoM2/LightII cells); format: cell-based; conditions: SmoM2 overexpression
From the text: as §1, §5, §6

Smo = test: Bodipy-cyclopamine competition assay in Cos 7 cells expressing Smo; format: binding; conditions: cells over-expressing Smo, 5 nM Bodipy-cyclopamine
Protocol: Cos 7 cells were transfected with a plasmid co-expressing Smo and a nuclear localized form of tagRFPT (pCIT-Smo). An empty parental construct (pCIT), and a construct that co-expresses SmoM2, were used as controls to assess specificity and background noise. Three days after transfection, cells were incubated with 5 nM Bodipy-cyclopamine, with or without other compounds for 1 hour at 37 °C. Cells were washed, fixed and stained with Hoechst. Images were collected by an Opera High Content Screen System. Bodipy fluorescence was quantified specifically for transfected cells (determined by red tagRFPT+ nucleus) using a program developed by the authors with Acapella 2.0 software. All of the images were scanned with identical microscopic settings and analyzed with the same input parameters.
Cos 7 cells were transfected with a plasmid that co-expresses Smo and a nuclear localized tagRFPT marker (pCIT-Smo). The empty parental construct (pCIT) and a construct that co-express SmoM2 were used as controls to assess specificity and background signal. Three days after transfection, cells were incubated with 5 nM Bodipy-cyclopamine, with or without additional compounds, for 1 hour at 37° C. Cells were then fixed and stained with Hoechst. Images were collected with the Opera High Content Screen System. Fluorescence values were assessed in transfected cells (red nuclei) with a program developed by the authors using Acapella 2.0 software. All of images were scanned with identical microscopic setting and analyzed with the same input parameters.

Hh pathway activity [3] = test: Priming and withdrawal of compound followed by Shh stimulation, Gli-luciferase reporter (hypersensitivity); format: cell-based; conditions: priming 24 hours, washout, then Shh (or SAG) stimulation
Protocol: as §5
Following the removal of drug containing medium, and extensive washing, cells were stimulated with either Hh ligand, or the direct-binding Smo agonist SAG^17,18.
as §6

Smo::EGFP [4] = biological target: T1, Smo::EGFP; test: High content screen for compound-induced Smo accumulation at the primary cilium (no Hh ligand); format: cell-based
Protocol: Cells were cultured and treated in 384-well imaging plate precoated with poly-D-Lysine (Greiner Bio-one), fixed with 4% paraformaldehyde (Electron Microscopy Sciences), and stained with Hoechst (Invitrogen). Images were collected using Opera High Content Screening System (Perkin Elmer).

Hh pathway activity [5] = test: Gli-luciferase reporter assay, Hh pathway activation by compound alone (NIH/3T3 cells); format: cell-based; conditions: 1 μM SAG
Protocol: as §6

T1 sequence (Q99835 28-787): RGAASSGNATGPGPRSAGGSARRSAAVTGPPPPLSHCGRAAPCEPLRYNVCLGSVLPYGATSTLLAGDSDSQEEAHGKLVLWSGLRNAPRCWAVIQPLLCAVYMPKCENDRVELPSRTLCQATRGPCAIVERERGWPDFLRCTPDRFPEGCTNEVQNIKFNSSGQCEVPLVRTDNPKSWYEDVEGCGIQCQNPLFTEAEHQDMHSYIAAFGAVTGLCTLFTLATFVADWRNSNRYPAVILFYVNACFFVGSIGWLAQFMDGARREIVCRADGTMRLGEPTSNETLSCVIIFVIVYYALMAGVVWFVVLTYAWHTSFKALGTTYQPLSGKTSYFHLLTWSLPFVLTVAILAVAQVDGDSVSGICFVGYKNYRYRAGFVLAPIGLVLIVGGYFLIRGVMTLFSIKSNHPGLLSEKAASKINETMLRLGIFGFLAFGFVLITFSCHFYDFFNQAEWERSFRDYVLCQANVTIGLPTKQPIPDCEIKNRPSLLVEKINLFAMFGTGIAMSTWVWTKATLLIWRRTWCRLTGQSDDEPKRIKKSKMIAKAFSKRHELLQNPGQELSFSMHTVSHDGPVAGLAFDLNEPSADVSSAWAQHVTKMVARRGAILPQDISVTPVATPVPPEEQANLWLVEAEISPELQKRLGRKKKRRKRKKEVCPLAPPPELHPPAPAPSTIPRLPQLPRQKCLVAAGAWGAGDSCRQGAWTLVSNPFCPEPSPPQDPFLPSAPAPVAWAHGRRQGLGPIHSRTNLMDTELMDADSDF
T2 sequence (Q99835 28-787 W535L): as the sequence (Q99835 28-787) above, with W508L counted along it

Molecule: 4-hydroxytamoxifen
accumulation of Smo on the PC (Smo::EGFP [1]): did not alter the accumulation of Smo on the PC

inhibition of Shh-induced Smo::EGFP accumulation in the PC (Smo::EGFP [1]): inhibited
Molecule: Cl.Cl.Clc1ccccc1CNCC1CCC(CNCc2ccccc2Cl)CC1 (centres unmarked) [AY9944]
inhibition of Shh-induced Hh pathway activity, Gli-luciferase reporter (Hh pathway activity [2]): inhibited

Molecule: CCCC1O[C@@H]2C[C@H]3[C@@H]4CCC5=CC(=O)C=C[C@]5(C)[C@H]4[C@@H](O)C[C@]3(C)[C@]2(C(=O)CO)O1 (some centres unmarked) [Bud, Budesonide]
effect on Wnt pathway reporter activity (Wnt signaling activity): no effect

inhibition of Shh-induced Smo::EGFP accumulation in the PC (Smo::EGFP [1]): inhibition of Smo accumulation in the PC
effect on SmoM2 ciliary localization (SmoM2::GFP): attenuated
Molecule: CC(C)C(=O)OCC(=O)[C@@]12O[C@H](C3CCCCC3)O[C@@H]1C[C@H]1[C@@H]3CCC4=CC(=O)C=C[C@]4(C)[C@H]3[C@@H](O)C[C@@]12C [Cic, Ciclesonide]
inhibition of Shh-induced Hh pathway activity, Gli-luciferase reporter (Hh pathway activity [2]): inhibited
effect on primary cilium markers / ciliary structure (primary cilium (PC)): did not disrupt
effect on SmoM2 driven Hh pathway activity, transcriptional reporter (SmoM2): attenuated

Molecule: CC1=C2C[C@H]3[C@@H](CC=C4C[C@@H](O)CC[C@@]43C)[C@@H]2CC[C@]12O[C@@H]1C[C@H](C)CN[C@H]1[C@H]2C [Cyc, Cyclopamine]
competition of Bodipy-Cyc binding to Smo (Smo): effective competitor
hypersensitivity to Hh pathway stimulation after priming with and removal of compound, Gli-luciferase (Hh pathway activity [3]): elevated signaling response
Hh pathway inhibition by the antagonist in the presence of FA (Hh pathway activity [2]; Gli-luciferase induction and Smo ciliary localization, 10 μM FA): dramatically reduced
induction of Smo accumulation in the PC by compound alone (Smo::EGFP [4]): induces its accumulation in the PC

IC50 (Smo::EGFP [1]; 3T3/Smo::GFP/Ivs::tagRFPT cells, stimulus Shh, read-out: IC50, inhibition of Shh-induced Smo::GFP ciliary accumulaton): 2000 nM
IC50 (Hh pathway activity [2]; Mus musculus, Shh Light II, 3T3/Shh-LightII cells, stimulus Shh, read-out: IC50, inhibition of Shh-induced expression of Gli-luciferase reporter): 10 µM
Molecule: CC(C)c1ccc(/C=N/NC(=O)c2ccc(O)cc2)cc1 [GSK4716]

Molecule: N#CC(C(=O)c1ccc(Cl)cc1Cl)c1nc2ccccc2c(=O)[nH]1 (centres unmarked) [HPI-4]
inhibition of Shh-induced Hh pathway activity, Gli-luciferase reporter (Hh pathway activity [2]): appear as Hh pathway antagonists
effect on primary cilium markers / ciliary structure (primary cilium (PC)): decrease in the Ivs::tagRFPT ciliary signal

inhibition of Shh-induced Smo::EGFP accumulation in the PC (Smo::EGFP [1]): inhibited
Molecule: CC(=O)N1CCN(c2ccc(OCC3COC(Cn4ccnc4)(c4ccc(Cl)cc4Cl)O3)cc2)CC1 (centres unmarked) [KCZ, Ketoconazole]
inhibition of Shh-induced Hh pathway activity, Gli-luciferase reporter (Hh pathway activity [2]): inhibited

Molecule: O=C(N/N=C/c1ccccc1)c1ccc(O)cc1 [RL-0070462]
Smo antagonist activity in SAR assays (Smo::EGFP [1]): dramatically impaired the activity

Smo antagonist activity in SAR assays (Smo::EGFP [1]): moderately decreased the activity
Molecule: CCN(CC)c1ccc(/C=N/NC(=O)c2ccccc2)cc1 [RL-0070463]

Molecule: CCN(CC)c1ccc(/C=N/NC(=O)c2ccc(OC)cc2)cc1 [RL-0070464]
Smo antagonist activity in SAR assays (Smo::EGFP [1]): can be tolerated

induction of Smo accumulation in the PC by compound alone (Smo::EGFP [4]): induces its accumulation in the PC
Molecule: CNC1CCC(N(Cc2cccc(-c3ccncc3)c2)C(=O)c2sc3ccccc3c2Cl)CC1 (centres unmarked) [SAG]
transcriptional response in Gli-luciferase reporter assay (Hh pathway activity [5]): 25 fold

Molecule: CC/C(=C(/CC)c1ccc(O)cc1)c1ccc(O)cc1 [diethylstilbestrol]
accumulation of Smo on the PC (Smo::EGFP [1]): did not alter the accumulation of Smo on the PC

Molecule: CC[C@H](c1ccc(O)cc1)[C@@H](CC)c1ccc(O)cc1 [hexestrol]
accumulation of Smo on the PC (Smo::EGFP [1]): did not alter the accumulation of Smo on the PC

Molecule: CC/C(=C(\c1ccccc1)c1ccc(OCCN(C)C)cc1)c1ccccc1 [tamoxifen citrate]
accumulation of Smo on the PC (Smo::EGFP [1]): did not alter the accumulation of Smo on the PC

Molecule: CC[C@]1(O)C[C@@H]2CN(CCc3c([nH]c4ccccc34)[C@@](C(=O)OC)(c3cc4c(cc3OC)N(C)[C@H]3[C@@](O)(C(=O)OC)[C@H](OC(C)=O)[C@]5(CC)C=CCN6CC[C@]43[C@@H]65)C2)C1 [vinblastine]
inhibition of Shh-induced Hh pathway activity, Gli-luciferase reporter (Hh pathway activity [2]): appear as Hh pathway antagonists
effect on primary cilium markers / ciliary structure (primary cilium (PC)): decrease in the Ivs::tagRFPT ciliary signal
